Here are results for one compound from patent publication US10470445B2, “Fumarylacetoacetate hydrolase (Fah)-deficient and immunodeficient rats and uses thereof” (YECURIS CORPORATION, priority 2011, dated 2019).

For the series, the system named is Nude (RNU) rats. The series is described as follows: FK506 immunosuppression of nude rats transplanted with human hepatocytes, body size. In kind it is in vivo, rat. The note with it: 2 mg/kg/day FK506, four weeks after hepatocyte injection. As for the experimental part: Forty nude rat pups (2 weeks old) were obtained from Charles River and acclimated for a week before the study began. The rats were assigned to + or −immunosuppressive groups, with controls in each group (see Table 3 below). Rats assigned to the +immunosuppressive group were treated with 2 mg/kg/day subcutaneous doses of FK506 (Tacrolimus) throughout the study, with the initial dosage being 20 μl of 5 mg/mL FK506 ([…]) per day, based upon an average initial animal weight of 50 g at the start of the study. The −immunosuppression rats were not treated with FK506, but were injected subcutaneously with the same volume of saline throughout the study. All of the rats were then given an intravenous injection (retroorbital) of uPA adenovirus (2.5×10^9 plaque forming units (PFU) per 50 g rat) 48-96 hours before hepatocyte injection.
Two weeks after study commencement, the dose of FK506 was increased to 30 μl of 5 mg/mL due to an increase in animal weight. Four weeks after study commencement, the dose of FK506 was again increased to 25 μl of 10 mg/mL to account for growth of the rats.
Four weeks after hepatocyte injection (˜5 weeks after study commencement), at least 50 μl of whole blood was collected from the rats and allowed to clot for 1 hour at room temperature. Serum was collected by centrifuging the whole blood at 1,500 rpm×15 minutes. […]

As for `C=CC[C@@H]1/C=C(\C)C[C@H](C)C[C@H](OC)[C@H]2O[C@@](O)(C(=O)C(=O)N3CCCC[C@H]3C(=O)O[C@H](/C(C)=C/[C@@H]3CC[C@@H](O)[C@H](OC)C3)[C@H](C)[C@@H](O)CC1=O)[C@H](C)C[C@@H]2OC` [FK506], the “body size on reweighing versus non-treated rats” value is “significantly smaller than their non-treated counterparts”.
